Patent US10960018B2, “Methods and compounds for stimulating read-through of premature termination codons” (The UAB Research Foundation, priority 2016, dated 2021)

Assays:
Type in all cases: cell-based, Rat
FRT G542X cells = assay: Transepithelial chloride conductance (TECC) assay in FRT G542X cells
Description: (§1) Stably transfected FRT cells as described herein cells were seeded onto Costar 24-well […] permeable supports at a density of ˜2×10^6 cells/filter and maintained at 37° C. with 5% CO2. Transepithelial resistance was assessed using an epithelial voltmeter to ensure the formation of tight monolayers, as defined by resistance >6 kcm^2. During initial evaluation of agents, cells were treated with compounds (10 μM), vehicle control (0.3% DMSO), or positive control (250 μg/mL G418) for 48 hours before transepithelial conductance (Gt) was assessed; subsequent studies used other concentrations of compounds. Measurements were taken at baseline, after the addition of 20 μM forskolin (FSK, a cAMP agonist that stimulates CFTR activity) and 10 μM CFTRInh-172 (a CFTR-specific inhibitor).
In the TECC assay, FRT G542X cells were treated with a single dose (10 μM) of each compound. FRT G542X cells were incubated for 48 hours with the compounds prior or vehicle control (0.3% DMSO). During the assay the baseline conductance (Gt) was initially determined prior to the acute addition of forskolin (20 μM) and VX-770 (10 μM) to stimulate CFTR activity; the CFTR inhibitor, CFTRInh-172 (10 μM), was added to inhibit CFTR activity at the end of the assay. In these experiments, an increase in CFTR conductance indicates the compounds stimulated read-through of the PTC in the constructs tested and that the CFTR was functional.
To prioritize which of the 48 read-through-positive compounds identified would be most efficacious in augmenting PTC read-through and restoring protein function, the TECC assay was repeated (in triplicate) using FRT G542X cells and FRT cells without CFTR (parental cells). Compounds (10 μM) or vehicle control (0.3% DMSO) were incubated for 48 hours with the cells. During the assay the baseline conductance (Gt) was initially determined prior to the acute addition of forskolin (20 μM) and VX-770 (10 μM) to stimulate CFTR activity; the CFTR inhibitor, CFTRInh-172 (10 μM), was added to inhibit CFTR activity at the end of the assay. G418 (250 μg/ml) was used as a positive control. In this assay, an increase in CFTR conductance indicates the compound stimulated read-through of the PTC in the constructs tested and that the CFTR was functional. The 48 compounds tested are provided in the Table 1 below (with the numerical designations corresponding to those shown in FIG. 4).
A series of functional assays was performed to evaluate the efficacy of these lead compounds in greater detail. Using FRT G542X cells, the optimal dose of each compound in augmenting chloride conductance (FIG. 5A) was determined. FRT G542X cells were incubated with compound (1 μM to 30 μM), G418 (250 μg/mL) or vehicle control (0.3% DMSO) for 48 hours. The conductance assay was conducted as described in Example 2 above. In this assay, an increase in CFTR conductance indicates the compounds stimulated read-through of the PTC in the constructs tested and that the CFTR was functional.

[1] = test system: FRT wild-type CFTR control cells; assay: Firefly luciferase reporter assay, wild-type control; conditions: 300 to 500 μg/ml, 24 hours
Description: The luciferase assay was performed on a Pharmakon 1600 library to determine the efficacy of each compound in promoting read-through. 5 ul of each compound as a DMSO stock solution were dissolved in F-12 Ham medium and dispensed into separate wells of 384-well plates (Corning) using a BioMek FX. FRT cells (10,000 cells/well) containing the reporter gene construct (QXN UGAC) were then added using the Matrix WellMate. The plates were incubated for 24 hours at 37° C., 5% CO2, and 95% humidity, after which firefly luciferase activity was determined by equilibrating the plates to room temperature, adding an equal volume of Promega BrightGlo (Promega), and reading enhanced luminescence with an Envision Plate Reader (PerkinElmer) within 5 minutes. […]
To validate these cell lines, the cell lines were treated with G418, a read-through agent with established efficacy in vitro (Bedwell D M, et al.; Nat Med; 3:1280-1284; 1997), at doses up to from 300 to 500 μg/ml. An increase in luciferase activity indicates G418 stimulated read-through of the PTC in the constructs tested. […] For screening purposes, firefly luciferase levels were measured without assessment of Renilla expression as an indication of total construct expression.

FRT W1282X cells = assay: Transepithelial chloride conductance assay in FRT W1282X cells; conditions: 48 hours; escin 10 μM, G418 250 μg/ml, VX-770 10 μM, VX-809 6 μM, NMDI-14 20 μg/ml, tobramycin 150, gentamicin 250 μg/ml
Description: as §1
Individual assays were performed as described herein.
As previously reported in the literature, the combination of CFTR correctors (such as VX-809) and CFTR potentiators (such as VX-770) act synergistically to improve CFTR function. […] Compounds alone or in the indicated combination were pre-incubated with FRT W1282X cells for 48 hours. During the assay the baseline conductance (Gt) was initially determined prior to the acute addition of forskolin (20 μM) and VX-770 (10 μM) to stimulate CFTR activity; the CFTR inhibitor, CFTRInh-172 (10 μM), was added to inhibit CFTR activity at the end of the assay. Enhancement of PTC read-through by the compounds of the present disclosure was determined by an increase in CFTR conductance. CFTR conductance also indicated the CFTR was functional as a result of the read-through of the PTC.
Compounds alone or in the indicated combination were pre-incubated with FRT G542X cells for 48 hours. […] Enhancement of PTC read-through by the compounds of the present disclosure was determined by an increase in CFTR conductance. CFTR conductance also indicated the CFTR was functional as a result of the read-through of the PTC.
It has been reported that aminoglycosides interfere with the action read-through stimulating compound. […] CFTR conductance also indicated the CFTR was functional as a result of the read-through of the PTC.
Stimulation of CFTR activity was determined by an increase in CFTR conductance. […] During the assay the baseline conductance (Gt) was initially determined prior to the acute addition of forskolin (20 μM) and GP-5 (10 μM) to stimulate CFTR activity; the CFTR inhibitor, […] (10 μM), was added to inhibit CFTR activity at the end of the assay.
The effect of the read-through stimulating compounds of the present disclosure in combination with the CFTR corrector VX-809 was further examined in FRT cells with the G542X, Y122X and W1282X mutations. […] CFTR conductance also indicated the CFTR was functional as a result of the read-through of the PTC.

For `CN[C@@H]1[C@@H](O)[C@@H](O[C@@H]2[C@@H](O)[C@H](O[C@H]3O[C@H]([C@@H](C)O)[C@@H](O)[C@H](O)[C@H]3N)[C@@H](N)C[C@H]2N)OC[C@]1(C)O` [G418, geneticin], the “incubation time of maximal effect on forskolin-induced conductance” value (FRT G542X cells; 250 μg/ml, 0 to 72 hours) was 72 h, the “signal intensity at 48 hrs pre-incubation” value (FRT G542X cells; 250 μg/ml, relative to maximal effect at 72 hrs) was over 75% and the “firefly luciferase activity compared to DMSO-treated vehicle” value [1] was “no significant effect”.
In the case of `CCOC(=O)c1c(NC(=O)CC2Nc3cc(C)c(C)cc3NC2=O)sc(C)c1C` (stereo not shown) [NMDI-14], the “CFTR function (conductance) in presence of forskolin and VX-770” value (“CFTR function … of forskolin and VX-770” for short) (FRT W1282X cells) is reported as “significantly increased” and the “CFTR function (conductance) in presence of VX-770 and forskolin” value (FRT G542X cells; 48 hours, escin 10 μM, NMDI-1 80 μg/ml, NMDI-14 20 μg/ml) is reported as “significantly increased”.
`NC[C@H]1O[C@H](O[C@H]2[C@H](O)[C@@H](O[C@H]3O[C@H](CO)[C@@H](O)[C@H](N)[C@H]3O)[C@H](N)C[C@@H]2N)[C@H](N)C[C@@H]1O` [tobramycin] was tested, and the “CFTR function … of forskolin and VX-770” value (FRT W1282X cells) was “did not stimulate CFTR function”.
In the case of gentamicin, the “CFTR function … of forskolin and VX-770” value (FRT W1282X cells) is reported as “did not stimulate CFTR function”.
